In series [1] the target is T1, SIK3 (QSK) (SEQ ID NO: 24) (Homo sapiens, UniProt Q9Y2K2).
T1 construct: Reaction Biology Corporation (assay service, HotSpot panel)
Put plainly: Protein kinase assay, SIK3. It counts as biochemical. To be noted: read-out: SIK3 (QSK) (SEQ ID NO: 24) kinase inhibition result. As for the experimental part:
Briefly, specific kinase/substrate pairs along with required cofactors were prepared in reaction buffer; 20 mM Hepes (pH 7.5), 10 mMmgCl2, 1 mM EGTA, 0.02% Brij35, 0.02 mg/ml BSA, 0.1 mM Na3VO4, 2 mM DTT, 1% DMSO. Compounds were delivered into the reaction, followed ˜20 min later by addition of a mixture of ATP (Sigma) and 33P ATP (PerkinElmer) to a final concentration of 10 μM. […] IC50 values and curve fits were obtained using Prism (GraphPad Software). Kinome tree representations were prepared using Kinome Mapper (http://www.reactionbiology.com/apps/kinome/mapper/LaunchKinome.htm).

In another series the target is T2, SIK1 (SEQ ID NO: 10) (Homo sapiens, UniProt P57059).
T2 construct: Reaction Biology Corporation (assay service, HotSpot panel)
Put plainly: Protein kinase assay, SIK1. In kind it is biochemical. Conditions: read-out: SIK1 (SEQ ID NO: 10) kinase inhibition result. A digest of the protocol: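 Radiometric assay in HEPES pH 7.5 with MgCl2, EGTA, Brij35, BSA, Na3VO4, DTT and 1% DMSO; compound added ~20 min before ATP plus 33P-ATP (10 μM final). IC50 from curve fits.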

For series [2], the target named is SIK2 (QIK) (SEQ ID NO: 11) (Homo sapiens, UniProt Q9H0K1). In words: SIK2 kinase assay (radiometric, 10 μM ATP). To be noted: read-out: SIK2 (QIK) (SEQ ID NO: 11) kinase inhibition result. It counts as biochemical. A digest of the protocol:
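Radiometric filter-binding format: enzyme and substrate peptide incubated with or without compound and ATP mix for 20 min at 30 °C. Reaction stopped with phosphoric acid, captured on filter mats and washed with 0.8% phosphoric acid before counting.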

Series [3] can be described thus: Rat bioavailability and pharmacokinetics. In kind it is in vivo, male Sprague Dawley rats. As for the experimental part: The objective of this study was to investigate the bio-availability and pharmacokinetics of a 1H-Pyrrolo[2,3-b]pyridine compound in male Sprague Dawley rats. A total of 6 male rats were used in the study.
Dose formulations were prepared on the day of doing. Blood samples were collected at 0.083 (only IV), 0.25, 0.5, 1, 2, 4, 8 and 24 h post-dose. At each time point, approximately 0.2 mL of blood was withdrawn from each cannulated rat through jugular vein and transferred to a pre-labeled microfuge tube containing 20 μL of 200 mM K2EDTA permL of blood. Following collection of blood sample, equal volume of heparinized saline was flushed into jugular vein of rat. The blood samples were centrifuged at 5000 g for 5 minutes at 4±2° C. The plasma was separated within 30 min of scheduled time and stored below −60° C. until bio-analysis. The plasma samples were analyzed for 114 using a fit-for purpose liquid chromatographic tandem mass spectrometric detection (LC-MS/MS) method with a lower limit of quantification of 2.21 ng/mL. The pharmacokinetic parameters for compound 114 were calculated using the non-compartmental analysis tool of validated WinNonlin® software (Version 5.2).

Where [4] appears, read: male, Sprague Dawley, plasma, IV 5 mg/kg, rat.
Where [5] appears, read: male, Sprague Dawley, plasma, PO 20 mg/kg, rat.

Like-named read-outs stand apart in the source and are kept apart here. A value given as a limit tells only on which side of the number the result lay.

T1 sequence (Q9Y2K2 whole entry): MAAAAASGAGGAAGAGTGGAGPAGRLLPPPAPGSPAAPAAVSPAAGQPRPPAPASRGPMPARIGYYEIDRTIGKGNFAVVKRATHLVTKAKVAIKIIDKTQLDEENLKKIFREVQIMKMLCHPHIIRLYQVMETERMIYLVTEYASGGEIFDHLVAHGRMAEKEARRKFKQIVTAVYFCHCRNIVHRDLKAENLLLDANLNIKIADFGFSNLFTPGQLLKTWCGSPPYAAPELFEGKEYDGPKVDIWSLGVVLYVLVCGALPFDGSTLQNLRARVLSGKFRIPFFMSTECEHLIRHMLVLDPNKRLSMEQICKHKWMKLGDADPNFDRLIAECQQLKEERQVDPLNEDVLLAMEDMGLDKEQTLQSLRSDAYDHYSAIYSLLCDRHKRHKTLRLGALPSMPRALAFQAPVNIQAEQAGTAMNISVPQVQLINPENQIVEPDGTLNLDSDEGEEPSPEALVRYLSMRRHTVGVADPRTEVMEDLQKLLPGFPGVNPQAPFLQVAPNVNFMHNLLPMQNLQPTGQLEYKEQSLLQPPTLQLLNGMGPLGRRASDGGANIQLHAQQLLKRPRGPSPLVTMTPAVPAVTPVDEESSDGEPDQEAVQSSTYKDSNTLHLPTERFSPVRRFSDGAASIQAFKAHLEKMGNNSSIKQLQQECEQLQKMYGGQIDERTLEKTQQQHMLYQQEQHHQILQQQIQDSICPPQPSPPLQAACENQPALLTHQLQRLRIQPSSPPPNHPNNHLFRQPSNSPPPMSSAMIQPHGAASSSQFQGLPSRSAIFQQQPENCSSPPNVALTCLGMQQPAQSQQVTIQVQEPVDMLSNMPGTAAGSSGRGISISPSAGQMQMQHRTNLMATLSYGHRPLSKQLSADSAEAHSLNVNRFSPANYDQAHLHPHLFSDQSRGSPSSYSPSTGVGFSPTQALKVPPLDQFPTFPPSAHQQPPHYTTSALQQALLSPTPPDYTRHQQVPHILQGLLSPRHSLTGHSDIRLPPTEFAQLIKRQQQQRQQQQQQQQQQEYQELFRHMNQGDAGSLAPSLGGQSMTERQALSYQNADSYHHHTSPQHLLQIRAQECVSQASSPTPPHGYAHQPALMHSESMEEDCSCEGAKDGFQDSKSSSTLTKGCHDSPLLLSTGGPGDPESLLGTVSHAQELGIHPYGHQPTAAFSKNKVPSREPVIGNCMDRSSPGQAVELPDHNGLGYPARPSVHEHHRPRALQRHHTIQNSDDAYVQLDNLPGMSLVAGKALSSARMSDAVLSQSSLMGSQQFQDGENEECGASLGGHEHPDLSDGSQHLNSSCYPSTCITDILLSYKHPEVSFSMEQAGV
T2 sequence (P57059 whole entry): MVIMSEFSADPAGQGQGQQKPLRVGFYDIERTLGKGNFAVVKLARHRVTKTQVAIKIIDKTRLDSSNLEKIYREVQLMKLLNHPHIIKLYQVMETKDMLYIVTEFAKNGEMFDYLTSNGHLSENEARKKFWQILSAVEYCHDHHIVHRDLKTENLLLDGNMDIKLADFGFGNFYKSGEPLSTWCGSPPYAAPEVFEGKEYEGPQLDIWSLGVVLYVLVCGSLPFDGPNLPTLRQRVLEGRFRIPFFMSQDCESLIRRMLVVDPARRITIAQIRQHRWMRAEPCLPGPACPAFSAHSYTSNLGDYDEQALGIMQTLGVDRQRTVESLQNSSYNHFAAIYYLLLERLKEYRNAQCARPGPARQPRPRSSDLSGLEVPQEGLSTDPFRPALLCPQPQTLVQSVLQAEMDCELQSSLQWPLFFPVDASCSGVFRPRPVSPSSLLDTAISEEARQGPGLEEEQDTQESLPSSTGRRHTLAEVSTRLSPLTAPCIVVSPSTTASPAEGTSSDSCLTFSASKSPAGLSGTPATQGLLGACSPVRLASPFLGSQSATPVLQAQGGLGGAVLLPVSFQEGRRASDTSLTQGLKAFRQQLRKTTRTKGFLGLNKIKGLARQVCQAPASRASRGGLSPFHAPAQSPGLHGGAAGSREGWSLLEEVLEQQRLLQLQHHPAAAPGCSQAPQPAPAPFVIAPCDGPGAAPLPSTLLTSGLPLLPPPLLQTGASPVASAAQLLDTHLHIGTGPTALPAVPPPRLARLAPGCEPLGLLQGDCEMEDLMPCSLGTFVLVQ
Sequence of SIK2 (QIK) (SEQ ID NO: 11) (Q9H0K1 whole entry): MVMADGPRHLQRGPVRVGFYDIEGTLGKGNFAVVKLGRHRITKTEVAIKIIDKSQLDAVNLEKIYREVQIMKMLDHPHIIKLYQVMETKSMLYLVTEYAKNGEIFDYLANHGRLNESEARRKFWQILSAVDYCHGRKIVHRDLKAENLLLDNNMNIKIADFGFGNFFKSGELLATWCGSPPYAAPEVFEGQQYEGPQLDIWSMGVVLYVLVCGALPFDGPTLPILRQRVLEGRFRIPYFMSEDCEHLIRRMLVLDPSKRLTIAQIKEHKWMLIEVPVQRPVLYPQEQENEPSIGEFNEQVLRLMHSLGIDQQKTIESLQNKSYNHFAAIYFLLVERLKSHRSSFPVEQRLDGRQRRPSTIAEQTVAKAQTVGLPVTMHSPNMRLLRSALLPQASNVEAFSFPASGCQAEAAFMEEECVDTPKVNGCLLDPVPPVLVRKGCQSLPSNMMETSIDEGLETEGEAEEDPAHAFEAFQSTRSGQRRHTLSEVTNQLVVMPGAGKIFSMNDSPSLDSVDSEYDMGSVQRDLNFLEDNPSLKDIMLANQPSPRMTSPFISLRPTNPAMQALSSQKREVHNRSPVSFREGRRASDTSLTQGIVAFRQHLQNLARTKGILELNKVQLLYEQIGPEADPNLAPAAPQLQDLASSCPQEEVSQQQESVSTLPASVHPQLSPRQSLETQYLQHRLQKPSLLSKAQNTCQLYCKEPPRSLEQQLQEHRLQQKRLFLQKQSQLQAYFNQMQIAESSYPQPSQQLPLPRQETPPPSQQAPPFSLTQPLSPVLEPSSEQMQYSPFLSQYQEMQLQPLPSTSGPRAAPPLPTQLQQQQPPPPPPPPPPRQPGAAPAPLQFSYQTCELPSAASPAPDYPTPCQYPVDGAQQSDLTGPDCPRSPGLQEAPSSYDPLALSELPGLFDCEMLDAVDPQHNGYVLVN

`Fc1cccc(-c2c[nH]c3ncc(-c4ccsc4)cc23)c1Cl` [Example 114, 3-(2-chloro-3-fluorophenyl)-5-(thiophen-3-yl)-1H-pyrrolo[2,3-b]pyridine]: the IC50 in series [1] was more than 1000 nM; at SIK1 (SEQ ID NO: 10) it was more than 100 nM; in series [2] it was less than 100 nM. Besides, the F in series [3] (PO 20 mg/kg vs IV 5 mg/kg, from AUCinf and nominal doses) came out at 15%. The AUC(0-inf) in series [3] (setting [4]) is 2620 ± 647 ng·h/mL; in series [3] (setting [5]), 1600 ± 183 ng·h/mL. For the same compound, the AUC(0-t) worked out at 2600 ± 637 ng·h/mL in series [3] (setting [4]) and 1580 ± 179 ng·h/mL in series [3] (setting [5]). Also, in series [3] (setting [4]), the clearance was 33.4 ± 9.57 mL/min/kg. The compound also showed a half-life in series [3] (setting [4]) of 32.4 ± 3 min. Further, the Cmax in series [3] (male, Sprague Dawley, plasma, IV 5 mg/kg, rat, read-out: Cmax (concentration at time zero)) was 3850 ng/mL; in series [3] (male, Sprague Dawley, plasma, PO 20 mg/kg, rat, read-out: Cmax) it was 853 ng/mL. Also, in series [3] (male, Sprague Dawley, plasma, IV 5 mg/kg, rat, read-out: Vss), the Vd turned out to be 1.61 ± 0.28 L/kg. For the same compound, the Tmax in series [3] (male, Sprague Dawley, plasma, PO 20 mg/kg, rat, read-out: Tmax (median)) came out at 15 min.

As to `O=C(c1c(F)cccc1F)c1c[nH]c2ncc(-c3cnc(N4CCOCC4)s3)cc12` [Example 213, (2,6-difluorophenyl)(5-(2-morpholinothiazol-5-yl)-1H-pyrrolo[2,3-b]pyridin-3-yl)methanone], the IC50 was less than 100 nM in series [1], more than 100 nM on SIK1 (SEQ ID NO: 10) and less than 100 nM in series [2].

For `CCS(=O)(=O)N1CCC(n2cc(-c3cnc4[nH]cc(-c5cc(F)cc(F)c5OC)c4c3)cn2)CC1` [Example 215, 3-(3,5-difluoro-2-methoxyphenyl)-5-(1-(1-(ethylsulfonyl)piperidin-4-yl)-1H-pyrazol-4-yl)-1H-pyrrolo[2,3-b]pyridine], the IC50 was more than 100 nM in series [1], more than 1000 nM at SIK1 (SEQ ID NO: 10) and more than 100 nM in series [2].

In the case of `CCCS(=O)(=O)N1CCC(n2cc(-c3cnc4[nH]cc(-c5cc(F)cc(F)c5OC)c4c3)cn2)CC1` [Example 216, 3-(3,5-difluoro-2-methoxyphenyl)-5-(1-(1-(propylsulfonyl)piperidin-4-yl)-1H-pyrazol-4-yl)-1H-pyrrolo[2,3-b]pyridine], the IC50 is more than 100 nM in series [1], more than 1000 nM at SIK1 (SEQ ID NO: 10) and more than 100 nM in series [2].

On to `COc1c(F)cc(F)cc1-c1c[nH]c2ncc(-n3cc(N4CCN(S(C)(=O)=O)CC4)cn3)cc12` [Example 217, 3-(3,5-difluoro-2-methoxyphenyl)-5-(4-(4-(methylsulfonyl)piperazin-1-yl)-1H-pyrazol-1-yl)-1H-pyrrolo[2,3-b]pyridine], for which the results for the IC50 (in series [1]; on SIK1 (SEQ ID NO: 10); in series [2]) were less than 100 nM, more than 100 nM and less than 100 nM, respectively.

Take `COc1c(F)cc(F)cc1-c1c[nH]c2ncc(-n3cc(N4CCN(CCO)CC4)cn3)cc12` [Example 218, 2-(4-(1-(3-(3,5-difluoro-2-methoxyphenyl)-1H-pyrrolo[2,3-b]pyridin-5-yl)-1H-pyrazol-4-yl)piperazin-1-yl)ethanol]: the IC50 is less than 100 nM in series [1], more than 100 nM at SIK1 (SEQ ID NO: 10) and less than 100 nM in series [2].

As to `CN1CCN(S(=O)(=O)n2cc(-c3cnc4[nH]cc(-c5ccc6c(c5)OC(F)(F)O6)c4c3)cn2)CC1` [Example 219, 3-(2,2-difluorobenzo[d][1,3]dioxol-5-yl)-5-(1-((4-methylpiperazin-1-yl)sulfonyl)-1H-pyrazol-4-yl)-1H-pyrrolo[2,3-b]pyridine], the IC50 in series [1] is less than 100 nM; at SIK1 (SEQ ID NO: 10), more than 100 nM; in series [2] it was less than 100 nM.

On to `CN1CCC(n2cc(-c3cnc4[nH]cc(-c5ccc6c(c5)OC(F)(F)O6)c4c3)cn2)CC1` [Example 220, 3-(2,2-difluorobenzo[d][1,3]dioxol-5-yl)-5-(1-(1-methylpiperidin-4-yl)-1H-pyrazol-4-yl)-1H-pyrrolo[2,3-b]pyridine], for which the IC50 in series [1] was more than 1000 nM; at SIK1 (SEQ ID NO: 10) it was more than 1000 nM; in series [2], more than 100 nM.

On to `CS(=O)(=O)N1CCC(n2cc(-c3cnc4[nH]cc(-c5ccc6c(c5)OC(F)(F)O6)c4c3)cn2)CC1` [Example 221, 3-(2,2-difluorobenzo[d][1,3]dioxol-5-yl)-5-(1-(1-(methylsulfonyl)piperidin-4-yl)-1H-pyrazol-4-yl)-1H-pyrrolo[2,3-b]pyridine], for which the IC50 (in series [1]; on SIK1 (SEQ ID NO: 10); in series [2]) was more than 1000 nM each time.

As for `CCS(=O)(=O)N1CCC(n2cc(-c3cnc4[nH]cc(-c5ccc6c(c5)OC(F)(F)O6)c4c3)cn2)CC1` [Example 222, 3-(2,2-difluorobenzo[d][1,3]dioxol-5-yl)-5-(1-(1-(ethylsulfonyl)piperidin-4-yl)-1H-pyrazol-4-yl)-1H-pyrrolo[2,3-b]pyridine], the IC50 (in series [1]; on SIK1 (SEQ ID NO: 10); in series [2]) was more than 1000 nM each time.

As for `CCCS(=O)(=O)N1CCC(n2cc(-c3cnc4[nH]cc(-c5ccc6c(c5)OC(F)(F)O6)c4c3)cn2)CC1` [Example 223, 3-(2,2-difluorobenzo[d][1,3]dioxol-5-yl)-5-(1-(1-(propylsulfonyl)piperidin-4-yl)-1H-pyrazol-4-yl)-1H-pyrrolo[2,3-b]pyridine], the IC50 (in series [1]; at SIK1 (SEQ ID NO: 10); in series [2]) was more than 1000 nM each time.

As for `CS(=O)(=O)N1CCN(c2cnn(-c3cnc4[nH]cc(-c5ccc6c(c5)OC(F)(F)O6)c4c3)c2)CC1` [Example 224, 3-(2,2-difluorobenzo[d][1,3]dioxol-5-yl)-5-(4-(4-(methylsulfonyl)piperazin-1-yl)-1H-pyrazol-1-yl)-1H-pyrrolo[2,3-b]pyridine], the IC50 in series [1] is less than 100 nM; at SIK1 (SEQ ID NO: 10), more than 100 nM; in series [2] it was less than 100 nM.

Regarding `OCCN1CCN(c2cnn(-c3cnc4[nH]cc(-c5ccc6c(c5)OC(F)(F)O6)c4c3)c2)CC1` [Example 225, 2-(4-(1-(3-(2,2-difluorobenzo[d][1,3]dioxol-5-yl)-1H-pyrrolo[2,3-b]pyridin-5-yl)-1H-pyrazol-4-yl)piperazin-1-yl)ethanol], the IC50 in series [1] is less than 100 nM; on SIK1 (SEQ ID NO: 10), more than 100 nM; in series [2] it was less than 100 nM.

For `COc1c(F)cc(F)cc1-c1c[nH]c2ncc(-c3cnn(C4CCN(CCO)CC4)c3)cc12` [Example 226, 2-(4-(4-(3-(3,5-difluoro-2-methoxyphenyl)-1H-pyrrolo[2,3-b]pyridin-5-yl)-1H-pyrazol-1-yl)piperidin-1-yl)ethanol], the IC50 in series [1] was less than 100 nM; on SIK1 (SEQ ID NO: 10), more than 100 nM; in series [2] it was less than 100 nM.

In the case of `OCCN1CCC(n2cc(-c3cnc4[nH]cc(-c5ccc6c(c5)OC(F)(F)O6)c4c3)cn2)CC1` [Example 227, 2-(4-(4-(3-(2,2-difluorobenzo[d][1,3]dioxol-5-yl)-1H-pyrrolo[2,3-b]pyridin-5-yl)-1H-pyrazol-1-yl)piperidin-1-yl)ethanol], the IC50 in series [1] was less than 100 nM; at SIK1 (SEQ ID NO: 10), more than 100 nM; in series [2], less than 100 nM.

As a reminder, the AUC(0-inf) is the area under the concentration-time curve extrapolated to infinity. One may read the AUC(0-t) as exposure summed from dosing to a finite time, without extrapolation to infinity. The clearance is the volume of plasma or blood freed of the substance per unit of time. A low value points to inefficient removal. What is called half-life is the time needed for the level to fall by half in the phase considered. Low readings indicate rapid decline, high ones slow decline. Usually Tmax stands for the time from dosing to the highest level.
